In US20110045101A1, “FUNGICIDAL SUBSTITUTED AZOLES” (E.I. Du Pont De Nemours and Company, priority 2009, published 2011):
Marks after values point to notes of the source that are not given here.

How the values were obtained:
Format in all cases: in vivo
Conditions in all cases: 100 = 100% disease control
[1] = test system: Puccinia recondita f. sp. tritici; test: Test I: wheat leaf rust on wheat seedlings, sprayed the day before inoculation, visual disease rating
Outline: (§1)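 200 ppm run-off spray (500 g/ha equivalent); * = 40 ppm. Vehicle: acetone/water 50/50, 250 ppm Trem® 014.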

[2] = test system: Erysiphe graminis f. sp. tritici; test: Test J: wheat powdery mildew on wheat seedlings, sprayed the day before inoculation, visual disease rating
Outline: as §1

Botrytis cinerea = test: Test C: tomato Botrytis on tomato seedlings, sprayed the day before inoculation, visual disease rating
Outline: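 Tomato seedlings were sprayed until run-off with test suspensions in acetone/water (50/50) carrying 250 ppm polyhydric alcohol ester surfactant. Standard dose was 200 ppm, with 40 ppm for marked entries.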

Alternaria solani = test: Test D: tomato early blight, sprayed the day before inoculation, visual disease rating
Outline: as §1

Septoria tritici = test: Test G: wheat leaf blotch on wheat seedlings, sprayed the day before inoculation, visual disease rating
Outline: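 Compounds dissolved in acetone (3% of final volume), then suspended in 50/50 acetone/water with 250 ppm Trem® 014 and sprayed to run-off on seedlings at 200 ppm (≈500 g/ha) or 40 ppm where marked. Inoculation with spores followed next day; visual rating after 48 h saturated at 24° C plus 19 days at 20° C.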

Septoria nodorum = test: Test F: wheat glume blotch on wheat seedlings, sprayed the day before inoculation, visual disease rating
Outline: as §1

[3] = 200 ppm, 0 = no control relative to controls
[4] = 40 ppm (marked *), 0 = no control

| SMILES | Test I disease control rating ([1]; 200 ppm, 0 = no control) [%] | Test J disease control rating ([2]; 200 ppm, 0 = no control) [%] | Test C disease control rating (Botrytis cinerea; 200 ppm, 0 = no control) [%] | Test D disease control rating (Alternaria solani; 200 ppm, 0 = no control) [%] | Test G disease control rating (Septoria tritici; 200 ppm, 0 = no control) [%] | Test F disease control rating (Septoria nodorum; 200 ppm, 0 = no control) [%] | Test I disease control rating [1, 3] [%] | Test J disease control rating [2, 3] [%] | Test C disease control rating (Botrytis cinerea; [3]) [%] | Test D disease control rating (Alternaria solani; [3]) [%] | Test G disease control rating (Septoria tritici; [3]) [%] | Test F disease control rating (Septoria nodorum; [3]) [%] | also measured |
| --- | --- | --- | --- | --- | --- | --- | --- | --- | --- | --- | --- | --- | --- |
| Cc1ccc(-n2c(Br)nc(Cl)c2-c2c(F)cccc2Cl)cc1 [compound 186] | 100 | 100 | 98 | 88 | 97 | 0 | – | – | – | – | – | – | – |
| Fc1cccc(Cl)c1-c1c(Cl)nc(C(F)(F)F)n1-c1ccc(Cl)cc1 [compound 90] | – | – | – | – | – | – | 54 | 0 | 0 | 0 | 0 | 0 | – |
| COc1cc(F)c(-c2c(Cl)nc(Cl)n2-c2cccc(F)c2)c(F)c1 [compound 257] | 100 | 100 | 100 | 100 | 95 | 99 | – | – | – | – | – | – | – |
| Cc1nn(C)c(-c2c(F)cccc2F)c1-c1ccc(Cl)c(F)c1 [compound 68] | – | – | – | – | – | – | 9 | 99 | 0 | 0 | 40 | 0 | – |
| Fc1cc(F)c(-n2c(Br)nc(Br)c2-c2ccc(Cl)cc2)c(F)c1 [compound 218] | – | – | – | – | – | – | – | – | – | – | – | – | Test I disease control rating [1, 4]: 80* %; Test J disease control rating [2, 4]: 73* %; Test C disease control rating (Botrytis cinerea; [4]): 99* %; Test D disease control rating (Alternaria solani; [4]): 99* %; Test G disease control rating (Septoria tritici; [4]): 91* %; Test F disease control rating (Septoria nodorum; [4]): 0* % |
| COc1cc(F)c(-c2c(C)nc(C)n2-c2ccc(Cl)c(F)c2)c(F)c1 [compound 44] | – | – | – | – | – | – | – | – | – | – | – | – | Test I disease control rating ([1]; 40 ppm (marked *)): 99* %; Test J disease control rating ([2]; 40 ppm (marked *)): 98* %; Test C disease control rating (Botrytis cinerea; 40 ppm (marked *)): 99* %; Test D disease control rating (Alternaria solani; 40 ppm (marked *)): 100* %; Test G disease control rating (Septoria tritici; 40 ppm (marked *)): 92* %; Test F disease control rating (Septoria nodorum; 40 ppm (marked *)): 40* % |
| Cc1nc(Cl)c(-c2c(F)cccc2F)n1-c1ccc(C(F)(F)F)cc1 [compound 92] | – | – | – | – | – | – | 89 | 100 | 76 | 100 | 98 | 0 | – |
| COc1cc(F)c(-n2cnc(Cl)c2-c2ccc(Cl)cc2)c(F)c1 [compound 277] | – | – | – | – | – | – | – | – | – | – | – | – | Test I disease control rating [1, 4]: 88* %; Test J disease control rating [2, 4]: 94* %; Test C disease control rating (Botrytis cinerea; [4]): 99* %; Test D disease control rating (Alternaria solani; [4]): 0* %; Test G disease control rating (Septoria tritici; [4]): 89* %; Test F disease control rating (Septoria nodorum; [4]): 0* % |
| Fc1cc(F)cc(-n2c(Br)nc(Cl)c2-c2c(F)cccc2F)c1 [compound 54] | – | – | – | – | – | – | 99 | 91 | 92 | 24 | 87 | 0 | – |
| CC(C)c1nc(Cl)c(-c2c(F)cccc2F)n1-c1ccc(Cl)cc1 [compound 116] | – | – | – | – | – | – | – | – | – | – | – | – | Test I disease control rating ([1]; 40 ppm (marked *)): 0* %; Test J disease control rating ([2]; 40 ppm (marked *)): 0* %; Test C disease control rating (Botrytis cinerea; 40 ppm (marked *)): 0* %; Test D disease control rating (Alternaria solani; 40 ppm (marked *)): 0* %; Test G disease control rating (Septoria tritici; 40 ppm (marked *)): 0* %; Test F disease control rating (Septoria nodorum; 40 ppm (marked *)): 0* % |
| Cc1ccc(-n2c(C)nc(Cl)c2-c2c(F)cc(F)cc2F)cc1 [compound 168] | 100 | 100 | 97 | 99 | 98 | 84 | – | – | – | – | – | – | – |
| Cc1nc(Cl)c(-c2c(F)cccc2Cl)n1-c1ccc(Cl)cc1 [compound 53] | – | – | – | – | – | – | 100 | 99 | 89 | 100 | 95 | 0 | – |
| CCc1nc(Cl)c(-c2c(F)cccc2F)n1-c1ccc(Cl)cc1 [compound 108] | – | – | – | – | – | – | – | – | – | – | – | – | Test I disease control rating ([1]; 40 ppm (marked *)): 98* %; Test J disease control rating ([2]; 40 ppm (marked *)): 99* %; Test C disease control rating (Botrytis cinerea; 40 ppm (marked *)): 100* %; Test D disease control rating (Alternaria solani; 40 ppm (marked *)): 100* %; Test G disease control rating (Septoria tritici; 40 ppm (marked *)): 74* %; Test F disease control rating (Septoria nodorum; 40 ppm (marked *)): 0* % |
| Cc1nc(C)n(-c2ccc(Cl)cc2)c1-c1c(F)ccc(F)c1Cl [compound 388] | – | – | – | – | – | – | 100 | 100 | 99 | 100 | 99 | 60 | – |
| Cc1ncn(-c2ccc(Cl)c(F)c2)c1-c1c(Cl)cncc1Cl [compound 255] | 86 | 91 | 99 | 0 | 95 | 0 | – | – | – | – | – | – | – |
| COc1nc(Cl)c(-c2c(Cl)nc(Cl)n2-c2ccc(Cl)c(F)c2)s1 [compound 456] | – | – | – | – | – | – | 0 | 43 | 0 | 0 | 88 | 0 | – |
| Fc1cc(-n2c(Cl)nc(Cl)c2-c2c(F)cccc2Cl)ccc1Cl [compound 230] | 94 | 99 | 99 | 97 | 99 | 0 | – | – | – | – | – | – | – |
| Fc1cc(-n2c(Cl)nc(CCl)c2-c2ccccc2F)ccc1Cl [compound 259] | 82 | 93 | 99 | 16 | 63 | 0 | – | – | – | – | – | – | – |
| COc1ccc(F)c(-c2c(Cl)nc(C)n2-c2ccc(Cl)cc2)c1F [compound 122] | – | – | – | – | – | – | 100 | 100 | 98 | 100 | 96 | 100 | – |
| COc1cc(F)c(-c2c(Cl)nc(C)n2-c2ccc(C)cc2)c(F)c1 [compound 159] | 100 | 100 | 99 | 100 | 97 | 99 | – | – | – | – | – | – | – |
| COc1ccc(-c2c(Cl)nc(C)n2-c2ccc(Cl)cc2)c(F)c1C [compound 114] | – | – | – | – | – | – | 41 | 72 | 93 | 0 | 95 | 0 | – |
| N#Cc1nc(Cl)c(-c2c(F)ccc(F)c2F)n1-c1ccc(Cl)cc1 [Compound 57, 4-chloro-1-(4-chlorophenyl)-5-(2,3,6-trifluorophenyl)-1H-imidazole-2-carbonitrile] | – | – | – | – | – | – | – | – | – | – | – | – | pest or weed control at 200 ppm ([1]; Puccinia recondita, 168 h, 200 ppm, 0 = no control relative to controls): 96%; pest or weed control at 200 ppm ([2]; Blumeria graminis, 168 h, 200 ppm, 0 = no control relative to controls): 100%; pest or weed control at 200 ppm (Botrytis cinerea; Botrytis cinerea, 120 h, 200 ppm, 0 = no control relative to controls): 84%; pest or weed control at 200 ppm (Alternaria solani; Alternaria solani, 168 h, 200 ppm, 0 = no control relative to controls): 99%; pest or weed control at 200 ppm (Septoria tritici; Zymoseptoria tritici, 504 h, 200 ppm, 0 = no control relative to controls): 87%; pest or weed control at 200 ppm (Septoria nodorum; Parastagonospora nodorum, 264 h, 200 ppm, 0 = no control relative to controls): 0% |
| Fc1cc(-n2c(Cl)nc(Cl)c2-c2c(F)cccc2F)ccc1Cl [compound 225] | 99 | 100 | 96 | 100 | 98 | 0 | – | – | – | – | – | – | – |
| COc1cc(F)c(-c2c(Cl)nc(Br)n2-c2ccc(C)cc2)c(F)c1 [compound 148] | 100 | 100 | 99 | 100 | 100 | 99 | – | – | – | – | – | – | – |
| Cc1ccc(-n2cnc(Cl)c2-c2c(F)cc(F)cc2F)cc1 [compound 139] | – | – | – | – | – | – | 98 | 98 | 99 | 100 | 75 | 0 | – |
| COc1cc(F)c(-n2c(Br)nc(Br)c2-c2ccc(Cl)cc2)c(F)c1 [compound 242] | – | – | – | – | – | – | – | – | – | – | – | – | Test I disease control rating [1, 4]: 89* %; Test J disease control rating [2, 4]: 92* %; Test C disease control rating (Botrytis cinerea; [4]): 99* %; Test D disease control rating (Alternaria solani; [4]): 95* %; Test G disease control rating (Septoria tritici; [4]): 95* %; Test F disease control rating (Septoria nodorum; [4]): 51* % |
| Cc1ncn(-c2ccc(Cl)c(F)c2)c1-c1cccnc1 [compound 252] | 0 | 0 | 15 | 0 | 13 | 0 | – | – | – | – | – | – | – |
